Assay results reported in ChEMBL document CHEMBL1140607, “Pharmacophore mapping of diverse classes of farnesyltransferase inhibitors” (Bioorg Med Chem Lett, 2007).

Test: Inhibition of FTase

Compound | IC50
Cn1cncc1C(OCc1ccc(C#N)cc1NS(=O)(=O)c1cccs1)c1ccc(C#N)cc1 (configuration not stated) | 0.88 nM
Cn1cncc1C(OCc1ccc(C#N)cc1-c1ccc2c(c1)OC(F)(F)O2)c1ccc(C#N)cc1 (configuration not stated) | 1.1 nM
COCc1cccc(-c2cc(C#N)ccc2COC(c2ccc(C#N)cc2)c2cncn2C)c1 (configuration not stated) | 0.19 nM
N#Cc1ccc(COCc2cncn2Cc2ccc(C#N)cc2-c2cccc3ccccc23)cc1 | 0.96 nM
N#Cc1ccc(Cn2cncc2COCc2ccc(C#N)cc2-c2cccc(OC(F)(F)F)c2)cc1 | 0.49 nM
Cc1ccccc1-c1cc(C(OCc2cccc(C(F)(F)F)c2)c2cncn2C)ccc1C#N (configuration not stated) | 29 nM
CCOc1cccc(-c2cc(C#N)ccc2COCc2cncn2Cc2ccc(C#N)cc2)c1 | 0.27 nM
Cn1c(=O)cc(-c2cccc(Cl)c2)c2cc(Cn3cncc3Cn3ccc(C(=O)N4CCOCC4)c3)ccc21 | 1000 nM
CCOc1cccc(-c2cc(C#N)ccc2C#CC(O)(c2ccc(C#N)cc2)c2cncn2C)c1 (configuration not stated) | 0.73 nM
N#Cc1ccc(OCc2cn(Cc3ccc(C#N)c(-c4ccc5ccccc5c4)c3)cn2)cc1 | 0.32 nM
C[n+]1cccc(NC(=O)C2CN(C3c4ccc(Cl)cc4CCc4cc(Br)cnc43)CCN2C(=O)NC2CC2)c1 (configuration not stated) | 51 nM
Cc1ccc(CNC(=O)C2CN(C3c4ccc(Cl)cc4CCc4cc(Br)cnc43)CCN2C(=O)NC2CCCCC2)cn1 (configuration not stated) | 61 nM
COc1cccc(-c2cc(N)ccc2COC(c2ccc(C#N)cc2)c2cncn2C)c1 (configuration not stated) | 40 nM
CCOc1cccc(-c2cc(C#N)ccc2CNCc2cncn2Cc2ccc(C#N)cc2)c1 | 0.014 nM
Cn1cncc1C(OCc1ccc(C#N)cc1)c1ccc(C#N)c(-c2cc3ccccc3s2)c1 (configuration not stated) | 160 nM
O=C(Nc1nncs1)C1CN(C2c3ccc(Cl)cc3CCc3cc(Br)cnc32)CCN1C(=O)NC1CCCCC1 (configuration not stated) | 490 nM
Cn1cncc1C(O)(c1ccc(Cl)cc1)c1ccc2c(c1)n(Cc1cccc(Cl)c1)c(=O)n2C (configuration not stated) | 150 nM
CCOc1cccc(-n2c(=O)n(C)c3ccc(C(O)(c4ccc(C#N)cc4)c4cncn4C)cc32)c1 (configuration not stated) | 0.5 nM
Cn1cncc1C(O)(c1ccc(C#N)cc1)c1ccc2c(c1)n(-c1cccc(Cl)c1)c(=O)n2C (configuration not stated) | 1.4 nM
CS(=O)(=O)Cn1cncc1COCc1ccc(C#N)cc1-c1cccc(Cl)c1 | 96 nM
CCCCC(=O)N1CCN(C2c3ccc(Cl)cc3CCc3cc(Br)ccc32)CC1C(=O)NCc1ccc[n+]([O-])c1 (configuration not stated) | 1800 nM
N#Cc1ccc(Cn2cncc2Cn2ccc3cc(-c4cccc5ccccc45)c(C#N)cc32)cc1 | 0.15 nM
